Consider 38 molecules from ChEMBL document CHEMBL3822429, “Identification of novel EZH2 inhibitors through pharmacophore-based virtual screening and biological assays” (Bioorg Med Chem Lett, 2016).

SMILES strings stand for the structures.

Assay [1] concerns the target T1, Histone-lysine N-methyltransferase EZH2 (Homo sapiens, UniProt Q15910). As to the kind of experiment: Inhibition of PRC2 EZH2 sub unit (unknown origin) assessed as inhibition of SAM-mediated methyl transfer process at 50 uM preincubated for 15 mins followed by addition of H3K27me and [3H]SAM as substrate measured after 90 mins by radioactive methylation assay.
Target sequence in this assay (Q15910 whole entry, looked up): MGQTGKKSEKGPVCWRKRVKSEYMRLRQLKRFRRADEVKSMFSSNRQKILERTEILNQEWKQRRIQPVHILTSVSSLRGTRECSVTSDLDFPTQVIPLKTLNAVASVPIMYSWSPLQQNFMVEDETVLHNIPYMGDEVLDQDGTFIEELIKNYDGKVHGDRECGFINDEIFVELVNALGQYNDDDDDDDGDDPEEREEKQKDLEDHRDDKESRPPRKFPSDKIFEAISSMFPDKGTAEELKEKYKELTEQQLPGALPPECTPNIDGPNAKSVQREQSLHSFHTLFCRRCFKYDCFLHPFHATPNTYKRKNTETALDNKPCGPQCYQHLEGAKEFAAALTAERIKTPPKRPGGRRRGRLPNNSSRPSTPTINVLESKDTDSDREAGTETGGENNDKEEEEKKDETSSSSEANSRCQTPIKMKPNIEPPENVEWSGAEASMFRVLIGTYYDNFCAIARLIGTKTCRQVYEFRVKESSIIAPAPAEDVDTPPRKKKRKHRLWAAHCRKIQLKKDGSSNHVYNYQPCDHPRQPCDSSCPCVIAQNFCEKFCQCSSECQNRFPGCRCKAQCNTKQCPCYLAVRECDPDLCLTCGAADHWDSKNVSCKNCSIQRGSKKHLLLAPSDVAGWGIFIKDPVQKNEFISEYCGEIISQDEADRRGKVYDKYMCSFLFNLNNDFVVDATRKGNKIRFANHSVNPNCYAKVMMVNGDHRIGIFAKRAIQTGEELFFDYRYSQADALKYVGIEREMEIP
A short description of assay [2]: Antiproliferative activity against human Toledo cells expressing wild-type EZH2 assessed as growth inhibition measured after 72 hrs by AlamaBlue assay.
Assay [3] has as its target DNA (cytosine-5)-methyltransferase 1 (Homo sapiens) (UniProt P26358). As to the kind of experiment: Inhibition of human DNMT1 assessed as DNA methylation at 50 uM preincubated for 15 mins followed by addition of poly(dI-dC) and [3H]SAM as substrate measured after 2 hrs by radioactive methylation assay.
Assay [4] relates to DB. Put plainly: Antiproliferative activity against human DB cells expressing EZH2 mutant assessed as growth inhibition measured after 72 hrs by AlamaBlue assay.
Assay [5] deals with T1, Histone-lysine N-methyltransferase EZH2. Put plainly: Inhibition of PRC2 EZH2 sub unit (unknown origin) assessed as inhibition of SAM-mediated methyl transfer process preincubated for 15 mins followed by addition of H3K27me and [3H]SAM as substrate measured after 90 mins by radioactive methylation assay.
Target sequence in this assay (Q15910 whole entry): as the sequence (Q15910 whole entry, looked up) above

Sequence of DNA (cytosine-5)-methyltransferase 1 (Homo sapiens) (P26358 whole entry): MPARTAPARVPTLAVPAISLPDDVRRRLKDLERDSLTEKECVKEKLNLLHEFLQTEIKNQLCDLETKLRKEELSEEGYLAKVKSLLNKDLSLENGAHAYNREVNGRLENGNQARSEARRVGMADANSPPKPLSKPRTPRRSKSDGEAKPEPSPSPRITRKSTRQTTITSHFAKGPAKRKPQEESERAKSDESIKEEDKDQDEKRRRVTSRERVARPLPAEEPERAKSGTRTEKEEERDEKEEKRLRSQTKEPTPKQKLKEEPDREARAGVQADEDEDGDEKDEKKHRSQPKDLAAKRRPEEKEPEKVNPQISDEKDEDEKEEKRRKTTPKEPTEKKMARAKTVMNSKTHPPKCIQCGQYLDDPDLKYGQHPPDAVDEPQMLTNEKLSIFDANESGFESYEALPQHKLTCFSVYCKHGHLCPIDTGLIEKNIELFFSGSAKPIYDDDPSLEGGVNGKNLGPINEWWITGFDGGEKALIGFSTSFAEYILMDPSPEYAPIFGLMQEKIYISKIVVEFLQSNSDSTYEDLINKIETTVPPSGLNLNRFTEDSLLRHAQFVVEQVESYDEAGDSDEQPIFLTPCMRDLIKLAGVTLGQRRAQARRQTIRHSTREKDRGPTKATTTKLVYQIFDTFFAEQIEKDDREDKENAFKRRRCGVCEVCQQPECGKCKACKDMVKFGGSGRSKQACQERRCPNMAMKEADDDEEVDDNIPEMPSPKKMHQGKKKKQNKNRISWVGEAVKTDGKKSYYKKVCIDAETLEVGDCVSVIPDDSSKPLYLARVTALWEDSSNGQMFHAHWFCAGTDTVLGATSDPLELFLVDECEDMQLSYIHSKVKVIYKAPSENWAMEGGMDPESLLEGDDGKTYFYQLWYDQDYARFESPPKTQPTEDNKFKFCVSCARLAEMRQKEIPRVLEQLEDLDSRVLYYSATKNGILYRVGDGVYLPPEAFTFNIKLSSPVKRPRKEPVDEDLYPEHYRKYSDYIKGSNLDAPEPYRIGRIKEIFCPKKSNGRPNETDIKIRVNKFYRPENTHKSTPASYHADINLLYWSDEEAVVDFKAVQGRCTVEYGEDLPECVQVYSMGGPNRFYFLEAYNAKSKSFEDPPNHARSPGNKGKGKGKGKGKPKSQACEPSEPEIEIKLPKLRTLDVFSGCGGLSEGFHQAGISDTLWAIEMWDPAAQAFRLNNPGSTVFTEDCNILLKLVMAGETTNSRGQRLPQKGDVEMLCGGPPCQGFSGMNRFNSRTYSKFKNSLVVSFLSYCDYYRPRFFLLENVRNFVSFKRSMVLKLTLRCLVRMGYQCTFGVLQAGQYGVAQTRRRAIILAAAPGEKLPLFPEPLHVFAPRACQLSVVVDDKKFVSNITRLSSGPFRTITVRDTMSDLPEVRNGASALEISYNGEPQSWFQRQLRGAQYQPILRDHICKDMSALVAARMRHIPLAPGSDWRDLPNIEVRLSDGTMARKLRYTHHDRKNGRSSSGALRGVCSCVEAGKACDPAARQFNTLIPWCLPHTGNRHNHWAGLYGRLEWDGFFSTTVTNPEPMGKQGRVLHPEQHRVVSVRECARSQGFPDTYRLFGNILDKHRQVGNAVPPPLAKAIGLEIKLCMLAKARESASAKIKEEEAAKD

For `COc1ccc(-n2c(SCC(=O)c3ccc(Cl)cc3)nc3ccccc3c2=O)cc1`, the inhibition (usually the relative decrease from the control value, in per cent) in assay [1] came out at 5%.

Take `COc1ccc(CN2CCN(c3cc(C)c(C#N)c4nc5ccccc5n34)CC2)cc1`: the inhibition in assay [1] is 0%.

As to `CC(=O)Nc1cc(C(=O)OC(C(=O)c2ccccc2)c2ccccc2)ccc1C` (configuration not stated), in assay [1], the inhibition is 2%.

With `CCOC(=O)C[n+]1ccc2c([nH]c3ccccc32)c1C`, in assay [1], the inhibition is 7%.

Take `Cc1ccc2nc(N=C(N)N)nc(C)c2c1`: the inhibition in assay [1] was determined as 3%.

For the molecule `Cc1cc(C)nc(Nc2n[nH]c(-c3ccccc3Cl)n2)n1`, the inhibition in assay [1] came to 17%.

As to `Cc1ccc(C(=O)CSc2nc3sc4c(c3c(=O)n2-c2ccccc2)CCCC4)s1`, the inhibition in assay [1] is -1%.

For `NC(=O)CCN1CCN(CCOC2Cc3cc(Cl)ccc3Sc3ccccc32)CC1` (configuration not stated), in assay [1], the inhibition was -6%.

Take `O=C(NC1CCSC1=O)c1cccc(C(=O)NC2CCSC2=O)c1` (configuration not stated): the inhibition in assay [1] was determined as 6%.

For `COc1ccc2nc(Nc3nc(O)cc(CSc4nnc(C)s4)n3)nc(C)c2c1`, in assay [1], the inhibition was -9%.

Turning to `N/N=C1/CCCc2c1[nH]c1ccc(F)cc21`, the inhibition in assay [1] turned out to be 18%.

For the molecule `Cn1c(-c2ccc(C=O)o2)nc2c3ccccc3c3ccccc3c21`, in assay [1], the inhibition was determined as 52%.

As for `Cc1ccc2c(C)nc(Nc3nc(O)cc(CSc4nnnn4-c4ccccc4)n3)nc2c1`, the inhibition in assay [1] was 19%.

In the case of `CCN(CC)c1ccc2cc(-c3nnc(Nc4cc(OC)ccc4OC)o3)c(=O)oc2c1`, the inhibition in assay [1] was 25%.

For the molecule `O=C(c1cnn2c1NC(c1ccc(Br)cc1)CC2C(F)(F)F)N1CCN2CCCC2C1` (configuration not stated), the inhibition in assay [1] is -2%.

`O=C1c2ccccc2-c2cccc3c2c1cc1ccccc13`: the inhibition in assay [1] came out at 34%.

Regarding `Cc1ccc2c(c1)C1CN(C)CCC1N2C(=O)Cc1ccc(Cl)cc1` (configuration not stated), the inhibition in assay [1] turned out to be 4%.

Consider `COc1ccc(C(=O)C(OC(=O)c2ccc(C)c(NC(C)=O)c2)c2ccccc2)cc1` (configuration not stated), for which the inhibition in assay [1] is 9%.

Take `Cc1ccc(-n2nc3cc(C)c(NC(=O)NC(=O)Cc4ccccc4)cc3n2)cc1`: in assay [1], the inhibition was determined as 0%.

On to `NS(=O)(=O)c1ccc(NC(=O)CN2C(=O)c3cccc4cccc(c34)C2=O)cc1`, for which, in assay [1], the inhibition turned out to be 14%.

For the molecule `CC1=CC(C)(C)Oc2c1c(=O)n(-c1ccccc1)c(=S)n2-c1ccc(C)cc1`, the inhibition in assay [1] came to 4%.

`Cc1ccc2nc(Nc3nc(O)cc(CSc4nnnn4-c4ccccc4)n3)nc(C)c2c1`: the inhibition in assay [1] was 28%.

Take `Cn1c(=O)cc2c3c(c(N4CCOCC4)ccc31)C(=O)c1ccccc1-2`: the inhibition in assay [1] turned out to be 9%.

Consider `CC12CCCc3c(-c4ncn[nH]4)c(-c4ccccc4)c(=O)n(c31)-c1ccccc12` (configuration not stated), for which, in assay [1], the inhibition is 1%.

With `OCCNCC(O)Cn1c2ccc(Br)cc2c2cc(Br)ccc21` (configuration not stated), the inhibition in assay [1] is -9%.

`O=C1CC(=C2c3ccccc3-c3ccccc32)C(=O)N1CCN1CCN(c2cccc(Cl)c2)CC1`: the inhibition in assay [1] is 29%.

For the molecule `Cc1ccc2c(c1)C1CN(C)CCC1N2C(=O)c1ccc2ccccc2c1` (configuration not stated), the inhibition in assay [1] was determined as 0%.

For `O=C1C(Cc2ccccc2)=C(O)c2cccc3c2C1=C(O)CC3`, in assay [1], the inhibition came out at 11%.

On to `NC(=O)c1ccc(N=C2C(=O)Nc3ccc([N+](=O)[O-])cc32)cc1`, for which the inhibition in assay [1] is 6%.

As to `O=C1c2ccccc2NC(c2c[nH]nc2-c2ccccc2)N1O` (configuration not stated), in assay [1], the inhibition was 9%.

For the molecule `O=c1c(-c2ccccc2)c(O)c2c(n1-c1ccccc1)CCCC2`, the inhibition in assay [1] was -2%.

For `N#C/C(=C/c1ccc(-c2ccc(C(N)=O)cc2)o1)c1nc2ccccc2[nH]1`, the inhibition in assay [1] stood at 41%.

With `Cc1cc(C)nc(NC2=NCCS2)n1`, the inhibition in assay [1] worked out at 16%.

For the molecule `COc1ccc2nc(Nc3nc(O)cc(CSc4nnnn4-c4ccccc4)n3)nc(C)c2c1`, the inhibition is 72% in assay [1] and 0% in assay [3]. In addition, the half-maximal inhibitory concentration (IC50) (as a rule, the concentration that inhibits the measured activity by half) was found to be 24.1 µM in assay [2], 32.8 µM in assay [4] and 22.6 µM in assay [5].

`Cc1cc(O)nc(Nc2ccccc2)n1`: the inhibition in assay [1] was -2%.

As to `CN1c2ccccc2Oc2nnc(N3CCN(C(c4ccccc4)c4ccccc4)CC3)cc21`, the inhibition in assay [1] is -7%.

On to `CCOc1ccc(NC(=N)Nc2nc(O)cc(CSc3nnnn3-c3ccccc3)n2)cc1`, for which, in assay [1], the inhibition was -1%.

For `O=C(/C(=C(/[O-])c1ccc(Cl)cc1)[n+]1ccc2ccccc2c1)c1ccccc1`, the inhibition in assay [1] came to 2%.
